From PMC9655968, “Synthesis of Novel Bromophenol with Diaryl Methanes—Determination of Their Inhibition Effects on Carbonic Anhydrase and Acetylcholinesterase” (Molecules, 2022)

Tests used:
Format in all cases: biochemical
[1] = molecular target: hCA I (Homo sapiens, UniProt P00915); assay: biochemical; conditions: for IC50: esterase method; for Ki: from Lineweaver-Burk graphs, mean ± SD
Method: (§1) […] Both hCA isoforms were purified by using the Sepharose-4B-L-Tyrosine-sulfanilamide affinity technique. Then, the purity of these CA isoenzymes was defined via the SDS-PAGE purity technique.
(§2) In order to investigate the in vitro inhibitory mechanisms of bromophenols (13–21), kinetic studies were performed at different concentrations of bromophenols and various substrates.

[2] = molecular target: hCA II (Homo sapiens, UniProt P00918); assay: biochemical; conditions: for IC50: esterase method; for Ki: from Lineweaver-Burk graphs, mean ± SD
Method: as §1, §2

[3] = molecular target: AChE (Electrophorus electricus, UniProt O42275); assay: AChE inhibition, Ellman's method at 412 nm, acetylthiocholine iodide substrate; conditions: for IC50: Ellman's method; for Ki: from Lineweaver-Burk graphs, mean ± SD
AChE, sequence (O42275 24-633): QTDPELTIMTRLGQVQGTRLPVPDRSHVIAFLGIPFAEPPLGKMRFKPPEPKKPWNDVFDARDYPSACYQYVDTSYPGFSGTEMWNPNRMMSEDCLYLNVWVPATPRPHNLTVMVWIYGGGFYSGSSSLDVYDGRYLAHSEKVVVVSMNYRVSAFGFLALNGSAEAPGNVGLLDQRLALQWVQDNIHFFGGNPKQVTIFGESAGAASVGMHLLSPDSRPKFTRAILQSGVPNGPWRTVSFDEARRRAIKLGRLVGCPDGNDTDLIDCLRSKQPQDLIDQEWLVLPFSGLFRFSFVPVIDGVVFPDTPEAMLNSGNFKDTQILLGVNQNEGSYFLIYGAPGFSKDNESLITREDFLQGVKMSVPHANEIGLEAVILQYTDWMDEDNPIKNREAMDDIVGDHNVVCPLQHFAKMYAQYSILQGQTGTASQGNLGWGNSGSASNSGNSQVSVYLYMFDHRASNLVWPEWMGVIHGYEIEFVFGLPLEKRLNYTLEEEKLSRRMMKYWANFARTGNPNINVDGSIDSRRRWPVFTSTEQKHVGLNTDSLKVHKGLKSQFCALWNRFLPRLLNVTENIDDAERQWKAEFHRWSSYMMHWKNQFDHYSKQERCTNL
Method: Acetylthiocholine iodide (AChI) was used as substrate, according to a prior study. […]
as §2

[4] = 19 and 21 compared (hydroxyl instead of methyl)

hCA I, sequence (P00915 whole entry, canonical isoform): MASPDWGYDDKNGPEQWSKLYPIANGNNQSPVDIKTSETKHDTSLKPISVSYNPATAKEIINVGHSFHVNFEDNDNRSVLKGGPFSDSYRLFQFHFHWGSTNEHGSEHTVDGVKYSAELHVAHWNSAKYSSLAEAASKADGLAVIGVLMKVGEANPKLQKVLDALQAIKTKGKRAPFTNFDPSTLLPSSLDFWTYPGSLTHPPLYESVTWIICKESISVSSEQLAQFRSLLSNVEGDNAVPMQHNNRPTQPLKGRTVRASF

Molecule	fold greater effect on inhibition, hCA I ([1]; 14 (methyl) compared with 16 (methoxy)) [fold]	fold difference in the inhibition value, hCA I ([1]; compounds 14 and 19 compared) [fold]	IC50 [1] [nM]	Ki [1] [nM]	IC50 [2] [nM]	Ki [2] [nM]	IC50 [3] [nM]	Ki [3] [nM]	fold decrease in the Ki value, hCA I ([1]; 15 compared with 16 (bromo group at 4th position)) [fold]	fold increase in the inhibition value, hCA II [2, 4] [fold]	fold increase in the inhibition value, AChE [3, 4] [fold]
1-Bromo-4,5-dimethoxy-2-(5-methoxy-2-methylbenzyl)benzene [Compound 14]	5.06	8.04	19.8	2.53 ± 0.25	14.7	4.28 ± 0.86	11.9	11.6 ± 2.75	–	–	–
4-Bromo-5-(2-bromo-4-hydroxybenzyl)benzene-1,2-diol [Compound 19]	–	–	–	–	–	–	20.4	17.4 ± 3.15	–	–	–
COc1ccc(Cc2cc(OC)c(OC)cc2Br)c(Br)c1 [Compound 13, 1-Bromo-2-(2-bromo-4-methoxybenzyl)-4,5-dimethoxybenzene]	–	–	38.5	25.7 ± 4.58	21	1.63 ± 0.11	–	–	–	–	–
COc1cc(Cc2cc(OC)c(OC)cc2Br)c(OC)cc1Br [Compound 15, 1-Bromo-2-(4-bromo-2,5-dimethoxybenzyl)-4,5-dimethoxybenzene]	–	–	20.4	9.35 ± 1.88	15.1	2.62 ± 0.13	–	–	1.37	–	–
COc1ccc(OC)c(Cc2cc(OC)c(OC)cc2Br)c1 [Compound 16, 1-Bromo-2-(2,5-dimethoxybenzyl)-4,5-dimethoxybenzene]	–	–	21	12.8 ± 0.52	15.8	7.77 ± 0.57	–	–	–	–	–
COc1cc(Br)c(Cc2ccc(OC)c(OC)c2OC)cc1OC [Compound 17, 1-(2-bromo-4,5dimethoxybenzyl)-2,3,4-trimethoxybenzene]	–	–	27.7	18.8 ± 4.97	23.1	10.3 ± 1.88	–	–	–	–	–
Oc1ccc(Cc2cc(O)c(O)cc2Br)c(Br)c1 [Compound 18, 4-Bromo-5-(2-bromo-4-hydroxybenzyl)benzene-1,2-diol]	–	–	15.4	12.5 ± 0.66	11.4	9.15 ± 1.36	–	–	–	–	–
Oc1cc(Br)c(Cc2cc(O)c(Br)cc2O)cc1O [Compound 20, 4-Bromo-5-(4-bromo-2,5-dihydroxybenzyl)benzene-1,2-diol]	–	–	19.3	13.4 ± 2.29	14.1	6.21 ± 1.01	–	–	–	–	–
Oc1ccc(O)c(Cc2cc(O)c(O)cc2Br)c1 [Compound 21, 4-Bromo-5-(2,5-dihydroxybenzyl)benzene-1,2-diol]	–	–	12.4	11 ± 3.83	7.45	4.97 ± 0.59	–	–	–	3.03	2.67
